Literature values, collected in PMC4728427, “Mechanism of allosteric activation of TMEM16A/ANO1 channels by a commonly used chloride channel blocker” (British Journal of Pharmacology, 2016).
Where two headings read alike, the source gives them in different places.

Experiments:
[1] = tested on: CaCC currents (TMEM16A); set-up: method as in Namkung et al., 2011b; conditions: ref Namkung et al., 2011b; read-out: EC50 activation of CaCC currents; cited from earlier work
[2] = tested on: bestrophin 1; set-up: method as in Oh et al., 2013; conditions: ref Oh et al., 2013; cited from earlier work
[3] = tested on: ClC‐2; set-up: method as in Oh et al., 2013; conditions: ref Oh et al., 2013; cited from earlier work
[4] = tested on: CFTR; set-up: method as in Oh et al., 2013; conditions: ref Oh et al., 2013; cited from earlier work
[5] = tested on: TMEM16A; set-up: method as in Oh et al., 2013; conditions: ref Oh et al., 2013; read-out: IC50 TMEM16A inhibition; cited from earlier work
[6] = tested on: TMEM16A; set-up: method as in Namkung et al., 2011a; conditions: ref Namkung et al., 2011a; read-out: IC50 TMEM16A inhibition; cited from earlier work
[7] = tested on: head and neck squamous cell carcinoma; set-up: method as in Duvvuri et al., 2012; conditions: ref Duvvuri et al., 2012; cited from earlier work

## COCCN(C(=O)c1cc(OC)c(OC)c(OC)c1)c1nc(-c2ccccc2)cs1 [Eact]
[1]
  EC50: 3000 to 6000 nM

## COc1cc(Nc2ccc([N+](=O)[O-])cc2C(=O)O)cc2ccccc12 [MONNA]
[2]
  interaction with bestrophin 1: does not interact
[3]
  interaction with ClC‐2: does not interact
[4]
  interaction with CFTR: does not interact
[5]
  IC50: ~1000 nM

## CCc1c(C)nc(SCC(=O)Nc2nc(-c3ccc(OC)cc3)cs2)[nH]c1=O [T16inh‐A01]
[6]
  IC50: ~1000 nM
[7]
  tumour growth: reduced tumour growth
